# In patent US20260207560A1, “PLURALITY OF GRANULES” (priority 2022, published 2026):
# “And” between values parts separate entries of the source, which are not always exact repeats. Identical values can stand only once. Marks after values point to notes of the source that are not given here.
# How the values were obtained:
# [1] = in vivo; cited from earlier work
# [2] = Forced degradation study of the active substance (HPLC assay, observations)
# [3] = Compatibility of active ingredient with HPMC and gelatin capsule shells (assay, related substances); type: physicochemical; details: for Assay (%): single vials
# Description: Binary mixtures of the active ingredient with the capsules shells were made as follows: • An active ingredient doping solution (active ingredient dissolved in ethanol) was made ([…]). A 100 μL aliquot of this doping was used to ‘spike’ the 10 vials of each capsule shell type as described in Table 5. The nominal quantity of active ingredient per vial was therefore 50 μg. • No doping solution was added to the three control vials of the excipient. • The active vials were left open overnight to evaporate all the ethanol, before closing the vials. • Both the active and placebo control vials were placed on stability for up to 28 days at 25° C. and 50° C.
# [4] = Gelatin capsule shell, 50° C., 28 days
# [5] = HPMC capsule shell, 25° C., 14 days
# [6] = HPMC capsule shell, 25° C., 14 days, listed as active ingredient
# [7] = HPMC capsule shell, 25° C., 28 days
# [8] = HPMC capsule shell, 25° C., 28 days, listed as active ingredient
# [9] = HPMC capsule shell, 50° C., 14 days
# [10] = HPMC capsule shell, 50° C., 14 days, listed as active ingredient
compound,measurement,setting,value
"CCS(=O)(=O)Nc1ccc2c(c1)nc(C(C)(C)C)n2CC1CCC(F)(F)CC1 [Compound I, N-(2-(tert-butyl)-1-((4,4-difluorocyclohexyl)methyl)-1H-benzimidazol-5-yl)ethanesulfonamide]",CNS-psychoactive effects,[1],does not cause CNS-psychoactive effects
same,Effect on appetite,[1],stimulate appetite in a dose-dependent manner
same,Sample observations,"[2]; Test 1 Control (solution, ambient temperature)",Clear colourless solution. No change over study period.
same,Assay of active substance,"[2]; Test 1 solution control, 0 days",99.40 area %
same,Assay of active substance,"[2]; Test 1 solution control, 3 days",99.42 area %
same,Assay of active substance,"[2]; Test 1 solution control, 7 days",99.30 area %
same,Assay of active substance,"[2]; Test 1 solution control, 11 days",99.39 area %
same,Sample observations,[2]; Test 2 Solid state 100° C.,Off-white solid turning to very faint orange solid over study
same,Assay of active substance,"[2]; Test 2 solid state at 100° C., 3 days",99.43 area %
same,Assay of active substance,"[2]; Test 2 solid state at 100° C., 7 days",99.40 area %
same,Sample observations,[2]; Test 3 Acid 60° C.,Clear colourless solution. No change over study period.
same,Sample observations,"[2]; Test 3 Acid (1M, ambient temperature)",Clear colourless solution. No change over study period.
same,Assay of active substance,"[2]; Test 3 acid (1M) ambient temperature, 3 days",99.40 area %
same,Assay of active substance,"[2]; Test 3 acid (1M) ambient temperature, 7 days",99.41 area %
same,Assay of active substance,"[2]; Test 3 acid (1M) at 60° C. until day 7, 80° C. until day 11, 11 days",98.87 area %
same,Assay of active substance,"[2]; Test 3 acid (1M) at 60° C., 3 days",99.37 area %
same,Assay of active substance,"[2]; Test 3 acid (1M) at 60° C., 7 days",99.35 area %
same,Sample observations,[2]; Test 4 Base 40° C.,Clear colourless solution. No change over study period.
same,Sample observations,"[2]; Test 4 Base (0.5M, ambient temperature)",Clear colourless solution. No change over study period.
same,Assay of active substance,"[2]; Test 4 base (0.5M) ambient temperature, 3 days",99.40 area %
same,Assay of active substance,"[2]; Test 4 base (0.5M) ambient temperature, 7 days",99.37 area %
same,Assay of active substance,"[2]; Test 4 base (0.5M) at 60° C. until day 7, 80° C. until day 11, 11 days",99.16 area %
same,Assay of active substance,"[2]; Test 4 base (0.5M) at 60° C., 3 days",99.34 area %
same,Assay of active substance,"[2]; Test 4 base (0.5M) at 60° C., 7 days",99.32 area %
same,Sample observations,[2]; Test 5 Heat 60° C. (solution),Clear colourless solution. No change over study period
same,Assay of active substance,"[2]; Test 5 solution at 60° C. until day 7, 80° C. until day 11, 11 days",98.00 area %
same,Assay of active substance,"[2]; Test 5 solution at 60° C., 3 days",99.13 area %
same,Assay of active substance,"[2]; Test 5 solution at 60° C., 7 days",99.34 area %
same,Sample observations,[2]; Test 6 Peroxide (1.5%),Clear colourless solution. No change over study period
same,Assay of active substance,"[2]; Test 6 peroxide (1.5%), 3 days",98.50 area %
same,Assay of active substance,"[2]; Test 6 peroxide (1.5%), 7 days",97.75 area %
same,Assay of active substance,"[2]; Test 6 peroxide (1.5%), 13 days",96.58 area %
same,Sample observations,[2]; Test 7 Photostability (Solution Control),Clear colourless solution. No change over study period.
same,Assay of active substance,[2]; Test 7 photocontrol solution,99.40 area %
same,Sample observations,[2]; Test 8 Photostability (Solution Treated),Clear colourless solution turning to a clear yellow solution
same,Assay of active substance,"[2]; Test 8 photo treated solution, 1.92 million lux hours, near-UV 374.6 Whm^−2",74.53 area %
same,Sample observations,[2]; Test 9 Photostability (Solid Control),Off white solid. No change over study period.
same,Assay of active substance,[2]; Test 9 photocontrol solid,99.40 area %
same,Sample observations,[2]; Test 10 Photostability (Solid Treated),Off-white solid turning to very faint orange solid over study
same,Assay of active substance,"[2]; Test 10 phototreated solid, 1.92 million lux hours, near-UV 374.6 Whm^−2",99.31 area %
same,Forced degradation outcome (summary),"[2]; peroxide, 1M acid, 0.5M base and solution when extended to 80° C.",slight degradation
same,Forced degradation outcome (summary),"[2]; solution at room temperature, solid at 100° C., 1M acid and 0.5M base at room temperature and 60° C., solution at 60° C., photostability as a solid",stable to degradation
same,Forced degradation outcome (summary),[2]; solution under photostability conditions,Major degradation
same,"Assay (%), mean","[3]; Gelatin capsule shell, 25° C., 14 days",98.1%
same,Assay (%),"[3]; Gelatin capsule shell, 25° C., 14 days, listed as active ingredient",98.9% and 97.4%
same,"Assay (%), mean","[3]; Gelatin capsule shell, 25° C., 28 days",99.1%
same,Assay (%),"[3]; Gelatin capsule shell, 25° C., 28 days, listed as active ingredient",98.8% and 99.4%
same,"Assay (%), mean","[3]; Gelatin capsule shell, 50° C., 14 days",99.3%
same,Assay (%),"[3]; Gelatin capsule shell, 50° C., 14 days, listed as active ingredient",99.3% and 99.4%
same,"Assay (%), mean",[3]; [4],89.3%
same,Assay (%),[3]; [4],99.4%
same,"Assay (%), mean","[3]; Gelatin capsule shell, initial",99.6%
same,Assay (%),"[3]; Gelatin capsule shell, initial, listed as active ingredient",99.0% and 100.2%
same,"Assay (%), mean",[3]; [5],95.8%
same,Related substance RRT 1.04,[3]; [5],0.08%
same,Related substance RRT 1.10,[3]; [5],0.09%
same,Related substance RRT 0.92,[3]; [6],0.08% and 0.07%
same,Related substance RRT 0.98,[3]; [6],0.31% and 0.32%
same,Related substance RRT 1.35,[3]; [6],0.13% and 0.12%
same,Related substance RRT 1.36,[3]; [6],0.13% and 0.12%
same,Related substances total,[3]; [6],0.82% and 0.80%
same,Assay (%),[3]; [5],98.9%
same,"Assay (%), mean",[3]; [7],99.1%
same,Related substance RRT 0.92,[3]; [7],0.08%
same,Related substance RRT 1.04,[3]; [7],0.07%
same,Related substances total,[3]; [7],0.79%
same,Related substance RRT 0.98,[3]; [8],0.3% and 0.31%
same,Related substance RRT 1.10,[3]; [8],0.09% and 0.08%
same,Related substance RRT 1.35,[3]; [8],0.12% and 0.13%
same,Related substance RRT 1.36,[3]; [8],0.12% and 0.13%
same,Assay (%),[3]; [8],99.3% and 99.0%
same,"Assay (%), mean",[3]; [9],98.8%
same,Related substance RRT 0.97,[3]; [9],0.67* %
same,Related substance RRT 1.04,[3]; [9],0.07%
same,Related substance RRT 1.10,[3]; [9],0.09%
same,Related substance RRT 1.36,[3]; [9],0.12%
same,Related substance RRT 0.92,[3]; [10],0.07% and <0.05%
same,Related substance RRT 0.98,[3]; [10],0.30% and 0.29%
